Reference: the supplement of paper PMC10307832

Experiments:
Experiment in all cases: relative viability (nuclei count vs DMSO), 5 days (fraction); higher = more cells survive
TPCA-1 + OSI-027 = compound: C1=CC(=CC=C1C2=CC(=C(S2)NC(=O)N)C(=O)N)F [TPCA-1] + COc1cccc2cc(-c3nc([C@H]4CC[C@H](C(=O)O)CC4)n4ncnc(N)c34)[nH]c12 [OSI-027] (partner 0.5 µM)
Procedure, shortened: (§1)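 Values are medians from duplicate plates. Each reflects relative viability, defined as the nuclei count of treated wells over that of vehicle wells. Lung cancer cell lines in 1536-well plates were pin-tool dosed one day after seeding with one drug alone or with a fixed anchor-drug dose plus five library-drug doses (not always all listed) in √10 steps, then fixed, stained and imaged at 4× after 5 days.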

TPCA-1 + Pemetrexed = compound: C1=CC(=CC=C1C2=CC(=C(S2)NC(=O)N)C(=O)N)F [TPCA-1] + Nc1nc2[nH]cc(CCc3ccc(C(=O)N[C@@H](CCC(=O)O)C(=O)O)cc3)c2c(=O)[nH]1 [Pemetrexed] (partner 0.2 µM)
Procedure, shortened: as §1

[1] = compound: C1/C(=C\C2=CC=CS2)/C(=O)/C(=C/C3=CC=CS3)/C1 + Cc1nc(NC(=O)N2CCC[C@H]2C(N)=O)sc1-c1ccnc(C(C)(C)C(F)(F)F)c1 [Alpelisib] (partner 2 µM)
Procedure, shortened: as §1

[2] = compound: C1/C(=C\C2=CC=CS2)/C(=O)/C(=C/C3=CC=CS3)/C1 + Cc1nc(Nc2ncc(C(=O)Nc3c(C)cccc3Cl)s2)cc(N2CCN(CCO)CC2)n1 [Dasatinib] (partner 0.075 µM)
Procedure, shortened: as §1

Cell Line	relative viability (TPCA-1 + OSI-027; first compound 0.04 µM)	relative viability (TPCA-1 + OSI-027; first compound 0.1265 µM)	relative viability (TPCA-1 + OSI-027; first compound 0.4 µM)	relative viability (TPCA-1 + OSI-027; first compound 1.265 µM)	relative viability (TPCA-1 + OSI-027; first compound 4 µM)	relative viability (TPCA-1 + Pemetrexed; first compound 0.04 µM)	relative viability (TPCA-1 + Pemetrexed; first compound 0.1265 µM)	relative viability (TPCA-1 + Pemetrexed; first compound 0.4 µM)	relative viability (TPCA-1 + Pemetrexed; first compound 1.265 µM)	relative viability (TPCA-1 + Pemetrexed; first compound 4 µM)	relative viability ([1]; first compound 0.2 µM)	relative viability ([1]; first compound 0.6325 µM)	relative viability ([1]; first compound 2 µM)	relative viability ([1]; first compound 6.325 µM)	relative viability ([1]; first compound 20 µM)	relative viability ([2]; first compound 0.2 µM)	relative viability ([2]; first compound 0.6325 µM)	relative viability ([2]; first compound 2 µM)	relative viability ([2]; first compound 6.325 µM)	relative viability ([2]; first compound 20 µM)
NCI-H1993	0.544	0.524	0.521	0.536	0.556	0.613	0.547	0.564	0.628	0.503	0.698	0.655	0.633	0.703	0.637	0.545	0.48	0.616	0.457	0.649
NCI-H2405	0.673	0.6	0.65	0.36	0.629	1.09	1.03	1.02	1.02	0.914	0.945	0.766	0.79	0.797	0.87	0.223	0.212	0.224	0.211	0.221
NCI-H2126	0.623	0.961	0.786	0.685	0.616	0.636	0.607	0.679	0.508	0.524	0.785	0.833	0.805	0.69	0.786	0.624	0.585	0.597	0.532	0.577
NCI-H1944	0.482	0.398	0.416	0.368	0.318	0.631	0.466	0.705	0.589	0.487	0.864	0.8	0.855	0.713	0.818	0.225	0.202	0.217	0.225	0.19
NCI-H358	0.808	0.657	0.816	0.52	0.226	0.187	0.167	0.162	0.156	0.167	1.11	0.799	0.861	0.668	0.88	0.155	0.178	0.18		0.164
NCI-H1734	0.822	0.477	0.656	0.745	0.33	0.41	0.413	0.41	0.48	0.362	0.725	0.666	0.713	0.588	0.682	0.458	0.49	0.498	0.458	0.497
A-427	0.528	0.359	0.546	0.332	0.195	1.01	0.918	1.11	1.05	0.388	1.12	1.06	1.18	1.04	1.01	0.841	0.721	0.644	0.722	0.708
RERF-LC-KJ	0.674	0.489	0.565	0.532	0.485	0.473	0.474	0.469	0.524	0.488	0.73	0.89	0.748	0.705	0.815	0.858	0.798	0.776	0.682	0.656
LCLC-97TM1	0.584	0.323	0.486	0.411	0.283	0.17	0.186	0.163	0.153	0.154	0.255	0.225	0.272	0.212	0.248	0.896	0.776	0.791	0.672	0.811
BEN	0.261	0.269	0.303	0.346	0.242	0.701	0.661	0.739	0.99	0.513	1.02	0.981	0.977	0.972	1.07	0.325	0.38	0.316	0.35	0.298
NCI-H2023	0.552	0.335	0.364	0.32	0.187	0.2	0.282	0.254	0.222	0.202	0.706	0.595	0.63	0.559	0.619	0.597	0.581	0.673	0.513	0.502
LC-2-ad	0.971	0.753	0.813	0.744	0.407	0.262	0.299	0.27	0.283	0.206	0.961	0.956	0.942	0.702	0.824	0.667	0.59	0.655	0.482	0.626
NCI-H647	0.633	0.573	0.602	0.55	0.245	0.177	0.172	0.183	0.163	0.182	1.14	1.32	1.08	1	1.13	0.214	0.145	0.19	0.211	0.16
NCI-H1755	0.755	0.621	0.804	0.539	0.496	0.448	0.437	0.459	0.379	0.444	0.951	0.963	1	0.796	0.929	0.393	0.462	0.445	0.366	0.375
EPLC-272H	0.346	0.236	0.305	0.277	0.288	0.287	0.331	0.371	0.359	0.266	1.1	0.881	1.05	0.831	0.841	0.322	0.332	0.45	0.349	0.311
NCI-H1437	0.888	0.89	0.908	0.921	0.652	0.318	0.326	0.318	0.302	0.298	0.985	0.923	0.988	0.639	0.901	0.408	0.446	0.561	0.412	0.378
